{"source": "patent US20120276225A1", "about": "“PHYTOESTROGENIC NUTRACEUTICAL COMPOSITION FROM PALM LEAF EXTRACT” (UNIVERSITI PUTRA MALAYSIA, priority 2009, published 2012)", "key": {"[1]": {"system": "vaginal epithelium in the immature female mice", "conditions": "cited from earlier work"}, "[2]": {"system": "vaginal epithelium and uterus of ovarectomized female Sprague-Dawley rats", "test": "Estrogenic activity in bilaterally ovarectomized rats (vaginal cornification, uterine wet weight)", "assay_type": "in vivo, rat", "conditions": "positive control gavaged daily 5 mg/kg BW", "procedure": "Phytoestrogenic enhancing activities of PLE were evaluated in normal and ovariectomised rats at 150 and 300 mg/kg doses. Estrogenic activity of the alcoholic extract was assessed in bilaterally ovarectomized female Sprague-Dawley rats taking percentage vaginal cornification, and uterine wet weight as parameters of assessment. Ovarectomized female rats (9 rats per group) given distilled water were used as a negative control, while rats gavaged daily with 5 mg/kg BW diethylstilbesterol were used as a positive control. At the end of treatment period of 14 days, rats were euthanized; the uteri were dissected and weighed, thereafter."}}, "data": [{"molecule": "CC1(C)[C@H]2C(=COc3cc(O)ccc32)[C@]2(O)C(=O)C[C@]3(O)C[C@H]1[C@H]2[C@H]3O", "note": "[Miroestrol]", "values": [{"measurement": "cornification of the vaginal epithelium", "setting": "[1]", "value": "produced cornification of the vaginal epithelium"}]}, {"molecule": "CC/C(=C(/CC)c1ccc(O)cc1)c1ccc(O)cc1", "note": "[synthetic estrogen, diethylstilbesterol]", "values": [{"measurement": "cornification of the vaginal epithelium", "setting": "[2]", "value": "induced a cornification of the vaginal epithelium as early as the third day of treatment"}]}]}
